According to patent US8865756B2, “Inhibitors of HCV NS5A” (Presidio Pharmaceuticals, Inc., priority 2008, dated 2014):

What follows are compounds tested on HCV 1b_Huh-Luc/Neo-ET cell line persistently expressing a bicistronic genotype 1b replicon in Huh 7 cells (assay: HCV replicon assay (luciferase readout)). Settings: Hepatitis C virus, Huh-7, 72 h, read-out: Inhibition of HCV genotype 1b.
Format: cell-based
Method: Biological activity of the compounds of the invention was determined using an HCV replicon assay. The HCV 1b_Huh-Luc/Neo-ET cell line persistently expressing a bicistronic genotype 1b replicon in Huh 7 cells was obtained from ReBLikon GMBH. This cell line was used to test compound inhibition using luciferase enzyme activity readout as a measurement of compound inhibition of replicon levels.
On Day 1 (the day after plating), each compound is added in triplicate to the cells. Plates incubated for 72 h prior to running the luciferase assay. Enzyme activity was measured using a Bright-Glo Kit (cat. number E2620) manufactured by Promega Corporation. The following equation was used to generate a percent control value for each compound. % Control=(Average Compound Value/Average Control)*100
The EC50 value was determined using GraphPad Prism and the following equation: Y=Bottom+(Top−Bottom)/(1+10^((Log IC50−X)*HillSlope))
EC50 values of compounds are determined several times in the replicon assay.
Example compounds of the disclosed invention are illustrated in Tables 1-14 attached as appendices. The tables show inhibitory activity of many of the example compounds with respect to HCV 1b. […] The tables further provide mass spectrometry results for the synthesized example compounds.

| Compound | EC50 |
| --- | --- |
| COC(=O)N[C@H](C(=O)N1CCC[C@H]1c1ncc(C#Cc2ccc(-c3ccc(-c4cnc([C@@H]5CCCN5C(=O)[C@@H](NC(=O)OC)C(C)C)[nH]4)cc3)cc2)[nH]1)C(C)C [Compound 756] | < 1 nM |
| CC(C)(C)OC(=O)N[C@@H](C(=O)N1CCC[C@H]1c1ncc(-c2ccc(C#Cc3ccc4nc([C@@H]5CCCN5C(=O)[C@H](NC(=O)OC(C)(C)C)c5ccccc5)[nH]c4c3)cc2)[nH]1)c1ccccc1 [Compound 801] | < 1 nM |
| CC(C)[C@@H](NC(=O)OC(C)(C)C)C(=O)N1CCC[C@H]1C(=O)Nc1ccc(C#Cc2cnc([C@@H]3CCCN3C(=O)[C@H](NC(=O)OC(C)(C)C)C(C)C)[nH]2)cc1 [Compound 114] | 10 to 999 nM |
| COC(=O)N[C@H]1CCC[C@@H]1C(=O)N1CCC[C@H]1c1ncc(-c2ccc(C#Cc3ccc4nc([C@@H]5CCCN5C(=O)[C@H]5CCC[C@@H]5NC(=O)OC)[nH]c4c3)cc2)[nH]1 [Compound 1059] | 10 to 999 nM |
| CC(C)(C)OC(=O)N[C@@H](C(=O)N1CCC[C@H]1C(=O)NCCc1ccc(C#Cc2cnc([C@@H]3CCCN3C(=O)[C@H](NC(=O)OC(C)(C)C)c3ccccc3)[nH]2)cc1)c1ccccc1 [Compound 124] | < 1 nM |
| C(#Cc1ccc2nc([C@@H]3CCCN3)[nH]c2c1)c1ccc(-c2cnc([C@@H]3CCCN3)[nH]2)cc1 [Compound 1035] | 10 to 999 nM |
| CC(C)(C)OC(=O)NC(C)(C)C(=O)N1CCC[C@H]1c1ncc(C#Cc2ccc(-c3cnc([C@@H]4CCCN4C(=O)C(C)(C)NC(=O)OC(C)(C)C)[nH]3)cc2)[nH]1 [Compound 106] | > 1000 nM |
| CCN(CC)[C@@H](C(=O)N1CCC[C@H]1c1ncc(-c2ccc(C#Cc3ccc(-c4cnc([C@@H]5CCCN5C(=O)[C@@H](c5ccccc5)N(CC)CC)[nH]4)cc3)cc2)[nH]1)c1ccccc1 [Compound 173] | < 1 nM |
| C[C@H](NC(=O)[C@H](NC(=O)OC(C)(C)C)c1ccccc1)c1ncc(-c2ccc(C#Cc3ccc(-c4cnc([C@@H]5CCCN5C(=O)[C@H](NC(=O)OC(C)(C)C)c5ccccc5)[nH]4)cc3)cc2)[nH]1 [Compound 280] | < 1 nM |
| CN(C)[C@@H](C(=O)N1CCC[C@H]1c1ncc(-c2ccc(C#Cc3cnc([C@@H]4CCCN4C(=O)[C@H](NC(=O)C4CC4)c4ccccc4)[nH]3)cc2)[nH]1)c1ccccc1 [Compound 131] | < 1 nM |
| C[C@@H](NC(=O)OC(C)(C)C)C(=O)N1CCC[C@H]1c1ncc(-c2ccc(C#Cc3ccc(-c4cnc([C@@H]5CCCN5C(=O)[C@@H](C)NC(=O)OC(C)(C)C)[nH]4)cc3)cc2)[nH]1 [Compound 151] | 10 to 999 nM |
| COC(=O)N[C@@H](C(=O)N1CCC[C@H]1c1ncc(C#Cc2ccc(-c3ccc(-c4cnc([C@@H]5CCCN5C(=O)[C@@H](c5ccccc5)N5CCCCC5)[nH]4)cc3)cc2)[nH]1)c1ccccc1 [Compound 752] | < 1 nM |
| C[C@@H](c1ncc(-c2ccc(C#Cc3ccc(-c4cnc([C@@H]5CCCN5C(=O)[C@H](NC(=O)C5CC5)c5ccccc5)[nH]4)cc3)cc2)[nH]1)N(C)C(=O)[C@H](NC(=O)C1CC1)c1ccccc1 [Compound 278] | < 1 nM |
| COC(=O)N[C@H](C(=O)N1CCC[C@H]1c1ncc(-c2ccc(C#Cc3ccc(-c4cnc([C@@H]5CCCN5C(=O)[C@@H](c5ccccc5)N5CCCCC5)[nH]4)cc3)cc2)[nH]1)C(C)C [Compound 986] | < 1 nM |
| CC(C)[C@@H](C(=O)N1CCC[C@H]1c1ncc(-c2ccc(C#Cc3ccc(-c4cnc([C@@H]5CCCN5C(=O)[C@H](C(C)C)N5CCOC5=O)[nH]4)cc3)cc2)[nH]1)N1CCOC1=O [Compound 1006] | 10 to 999 nM |
| CC(C)[C@@H](NC(=O)OC(C)(C)C)C(=O)N1CCC[C@H]1c1ncc(C#Cc2ccc(-c3cnc([C@@H]4CCCN4C(=O)[C@H](NC(=O)OC(C)(C)C)C(C)C)[nH]3)cc2)[nH]1 [Compound 105] | 10 to 999 nM |
| COC(=O)N[C@H](C(=O)N1CCC[C@H]1c1ncc(-c2ccc(C#Cc3ccc4c(ccc5nc([C@@H]6CCCN6C(=O)[C@@H](NC(=O)OC)C(C)C)[nH]c54)c3)cc2)[nH]1)C(C)C [Compound 1095] | < 1 nM |
| COC(=O)N[C@H](C(=O)N1CSC[C@H]1c1ncc(-c2ccc(C#Cc3ccc4nc([C@@H]5CCCN5C(=O)[C@@H](NC(=O)OC)C(C)C)[nH]c4c3)cc2)[nH]1)C(C)C [Compound 1026] | < 1 nM |
| COC(=O)N[C@@H](C(=O)N1CCC[C@H]1c1ncc(-c2ccc(C#Cc3ccc(-c4cnc([C@@H]5CCCN5C(=O)[C@H](NC(=O)OC)C(C)C)[nH]4)cc3)cc2)[nH]1)C(C)C [Compound 292] | > 1000 nM |
| O=C(N[C@@H](C(=O)N1CCC[C@H]1c1ncc(-c2ccc(C#Cc3ccc(-c4cnc([C@@H]5CCCN5C(=O)[C@H](NC(=O)N5CCC(O)CC5)c5ccccc5)[nH]4)cc3)cc2)[nH]1)c1ccccc1)N1CCC(O)CC1 [Compound 251] | < 1 nM |

| Compound | EC50 |
| --- | --- |
| COC(=O)N[C@@H](C(=O)N1CCC[C@H]1c1ncc(C#Cc2ccc(-c3ccc(-c4cnc([C@@H]5CCCN5C(=O)[C@H](NC(=O)OC)c5ccccc5)[nH]4)cc3)cc2)[nH]1)c1ccccc1 [Compound 750] | < 1 nM |
| CC[C@@H](C)[C@H](NC(=O)OC)C(=O)N1CCC[C@H]1c1ncc(-c2ccc(C#Cc3ccc4nc([C@@H]5CCCN5C(=O)[C@@H](NC(=O)OC)[C@H](C)CC)[nH]c4c3)cc2)[nH]1 [Compound 1024] | < 1 nM |
| COC(=O)N[C@@H](C(=O)N1CCC[C@H]1c1ncc(C#Cc2ccc(-c3cnc([C@@H]4CCCN4C(=O)[C@H](NC(=O)OC)c4ccccc4)[nH]3)cc2)[nH]1)c1ccccc1 [Compound 110] | < 1 nM |
| COC(=O)N[C@@H](C(=O)N1CCC[C@H]1c1ncc(-c2ccc(C#Cc3ccc(-c4cnc([C@@H]5CCCN5C(=O)[C@H](NC(=O)N5CCC(C)(O)CC5)c5ccccc5)[nH]4)cc3)cc2)[nH]1)c1ccccc1 [Compound 273] | < 1 nM |
| O=C(N[C@@H](C(=O)N1CCC[C@H]1c1ncc(C#Cc2ccc(-c3ccc(-c4cnc([C@@H]5CCCN5C(=O)[C@H](NC(=O)C5CC5)c5ccccc5)[nH]4)cc3)cc2)[nH]1)c1ccccc1)C1CC1 [Compound 760] | < 1 nM |
| O=C(N[C@@H](C(=O)N1CCC[C@H]1C(=O)Nc1ccc(C#Cc2cnc([C@@H]3CCCN3C(=O)[C@H](NC(=O)C3CC3)c3ccccc3)[nH]2)cc1)c1ccccc1)C1CC1 [Compound 117] | < 1 nM |
| CS(=O)(=O)N[C@@H](C(=O)N1CCC[C@H]1c1ncc(-c2ccc(C#Cc3ccc(-c4cnc([C@@H]5CCCN5C(=O)[C@H](NS(C)(=O)=O)c5ccccc5)[nH]4)cc3)cc2)[nH]1)c1ccccc1 [Compound 226] | < 1 nM |
| O=C(N[C@@H](C(=O)N1CCC[C@H]1c1cc(-c2ccc(C#Cc3ccc(-c4cnc([C@@H]5CCCN5C(=O)[C@H](NC(=O)C5CC5)c5ccccc5)[nH]4)cc3)cc2)n[nH]1)c1ccccc1)C1CC1 [Compound 212] | < 1 nM |
| COC(=O)N[C@H](C(=O)N[C@H](c1ncc(-c2ccc(C#Cc3ccc(-c4cnc([C@@H]5CCCN5C(=O)[C@@H](NC(=O)OC)C(C)C)[nH]4)cc3)cc2)[nH]1)C(C)C)C(C)C [Compound 276] | 1 to 9.9 nM |
| O=C(N[C@@H](C(=O)N1CCC[C@H]1c1ncc(-c2ccc(C#Cc3ccc(-c4cnc([C@@H]5CCCN5C(=O)[C@H](NC(=O)C5CC5)c5ccccc5)[nH]4)cc3)cc2)[nH]1)c1ccccc1)C1CC1 [Compound 153] | < 1 nM |
| COC(=O)N[C@H](C(=O)N[C@@H](C)c1ncc(-c2ccc(C#Cc3ccc(-c4cnc([C@@H]5CCCN5C(=O)[C@@H](c5ccccc5)N(C)C)[nH]4)cc3)cc2)[nH]1)C(C)C [Compound 965] | < 1 nM |
| COC(=O)N[C@@H](C(=O)N1CCC[C@H]1c1ncc(-c2ccc(C#Cc3ccc(-c4cnc([C@@H]5CCCN5C(=O)[C@H](NC(=O)N5CCN(C)CC5)c5ccccc5)[nH]4)cc3)cc2)[nH]1)c1ccccc1 [Compound 240] | < 1 nM |
| COC(=O)N[C@H](C(=O)N1CCC[C@H]1c1nc2ccc(C#Cc3ccc4nc([C@@H]5CCCN5C(=O)[C@@H](NC(=O)OC)C(C)C)[nH]c4c3)cc2[nH]1)C(C)C [Compound 852] | < 1 nM |
| COC(=O)N[C@@H](C(=O)N1CCC[C@H]1c1ncc(-c2ccc(C#Cc3ccc(-c4cnc([C@@H]5CCCN5C(=O)[C@H]5CCCO5)[nH]4)cc3)cc2)[nH]1)c1ccccc1 [Compound 177] | < 1 nM |
| COC(=O)N[C@@H]1CCC[C@H]1C(=O)N1CCC[C@H]1c1ncc(-c2ccc(C#Cc3ccc4nc([C@@H]5CCCN5C(=O)[C@@H]5CCC[C@H]5NC(=O)OC)[nH]c4c3)cc2)[nH]1 [Compound 1058] | 10 to 999 nM |
| C[C@H](NC(=O)[C@@H]1CCCN1C(=O)[C@H](NC(=O)C1CC1)c1ccccc1)c1ccc(C#Cc2ccc(-c3cnc([C@@H]4CCCN4C(=O)[C@H](NC(=O)C4CC4)c4ccccc4)[nH]3)cc2)cc1 [Compound 191] | < 1 nM |
| COC(=O)N[C@H](C(=O)N[C@@H](C)c1ncc(-c2ccc(C#Cc3ccc(-c4cnc([C@H](C)NC(=O)[C@@H](NC(=O)OC)C(C)C)[nH]4)cc3)cc2)[nH]1)C(C)C [Compound 951] | < 1 nM |
| CC(C)[C@H](NC(=O)N1CCN(C)CC1)C(=O)N1CCC[C@H]1c1ncc(-c2ccc(C#Cc3ccc(-c4cnc([C@@H]5CCCN5C(=O)[C@@H](NC(=O)N5CCN(C)CC5)C(C)C)[nH]4)cc3)cc2)[nH]1 [Compound 287] | > 1000 nM |
| COC(=O)N[C@H](C(=O)N1CCC[C@H]1c1ncc(-c2ccc(C#Cc3ccc(-c4cnc([C@@H]5CCCN5C(=O)[C@H](NC(=O)N5CCC(C)(O)CC5)c5ccccc5)[nH]4)cc3)cc2)[nH]1)C(C)C [Compound 992] | < 1 nM |
